# Patent publication US6596687B1, “Cell adhesion inhibitors” (Biogen, Inc., priority 1995, dated 2003)
# Read-outs that look alike come from different tables or passages of the source. Numbered stars: 1 amine (or outer) side, 2 acyl side, 3 side chain; on linkers, the order of the positions; unused ones are H or OH. Square brackets hold non-standard residues; d marks the D form. Peptide text beside a SMILES is read from it. * marks the point of attachment. X3 = COc1cc(CC(=O)[*:2])ccc1N[*:1]; X2 = O=C(Cc1ccc(N[*:1])cc1)[*:2]; NH(2-Me-phenyl) = Cc1ccccc1N*; CO = O=C([*:1])[*:2]; NHPh = c1ccc(N*)cc1; X1 = Oc1ccccc1N*
# Target: T1, VLA4 (Homo sapiens, UniProt P05556+P13612)
# T1 construct: endogenous in cells; host or cells: Ramos cells
# T1 sequence (P13612 34-1032): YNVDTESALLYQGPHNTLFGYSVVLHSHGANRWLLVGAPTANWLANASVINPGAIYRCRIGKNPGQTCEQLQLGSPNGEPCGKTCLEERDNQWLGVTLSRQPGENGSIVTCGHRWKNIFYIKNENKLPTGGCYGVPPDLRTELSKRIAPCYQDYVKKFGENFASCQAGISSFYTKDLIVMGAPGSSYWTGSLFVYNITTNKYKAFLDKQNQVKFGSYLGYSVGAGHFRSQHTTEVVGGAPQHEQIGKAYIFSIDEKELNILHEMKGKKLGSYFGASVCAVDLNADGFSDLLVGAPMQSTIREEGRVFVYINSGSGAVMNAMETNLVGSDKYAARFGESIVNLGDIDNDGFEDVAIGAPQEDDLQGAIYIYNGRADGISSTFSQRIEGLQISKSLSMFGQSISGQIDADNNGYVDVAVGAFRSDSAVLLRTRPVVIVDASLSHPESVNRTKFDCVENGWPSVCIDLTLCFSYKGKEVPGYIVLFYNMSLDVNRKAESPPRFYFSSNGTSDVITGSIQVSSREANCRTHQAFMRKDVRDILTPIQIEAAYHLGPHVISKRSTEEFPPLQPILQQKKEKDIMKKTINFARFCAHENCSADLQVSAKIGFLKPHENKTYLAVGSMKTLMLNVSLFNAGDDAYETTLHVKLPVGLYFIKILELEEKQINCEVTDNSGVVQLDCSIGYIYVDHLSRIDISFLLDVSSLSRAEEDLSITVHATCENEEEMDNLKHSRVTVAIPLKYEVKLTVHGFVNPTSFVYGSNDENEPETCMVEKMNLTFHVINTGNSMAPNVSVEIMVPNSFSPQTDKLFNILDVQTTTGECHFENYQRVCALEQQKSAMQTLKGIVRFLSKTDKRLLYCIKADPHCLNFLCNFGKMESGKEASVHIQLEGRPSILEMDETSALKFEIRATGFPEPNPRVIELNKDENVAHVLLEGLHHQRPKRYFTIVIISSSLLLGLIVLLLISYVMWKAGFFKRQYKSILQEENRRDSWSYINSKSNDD
# T1 sequence (P05556 21-798): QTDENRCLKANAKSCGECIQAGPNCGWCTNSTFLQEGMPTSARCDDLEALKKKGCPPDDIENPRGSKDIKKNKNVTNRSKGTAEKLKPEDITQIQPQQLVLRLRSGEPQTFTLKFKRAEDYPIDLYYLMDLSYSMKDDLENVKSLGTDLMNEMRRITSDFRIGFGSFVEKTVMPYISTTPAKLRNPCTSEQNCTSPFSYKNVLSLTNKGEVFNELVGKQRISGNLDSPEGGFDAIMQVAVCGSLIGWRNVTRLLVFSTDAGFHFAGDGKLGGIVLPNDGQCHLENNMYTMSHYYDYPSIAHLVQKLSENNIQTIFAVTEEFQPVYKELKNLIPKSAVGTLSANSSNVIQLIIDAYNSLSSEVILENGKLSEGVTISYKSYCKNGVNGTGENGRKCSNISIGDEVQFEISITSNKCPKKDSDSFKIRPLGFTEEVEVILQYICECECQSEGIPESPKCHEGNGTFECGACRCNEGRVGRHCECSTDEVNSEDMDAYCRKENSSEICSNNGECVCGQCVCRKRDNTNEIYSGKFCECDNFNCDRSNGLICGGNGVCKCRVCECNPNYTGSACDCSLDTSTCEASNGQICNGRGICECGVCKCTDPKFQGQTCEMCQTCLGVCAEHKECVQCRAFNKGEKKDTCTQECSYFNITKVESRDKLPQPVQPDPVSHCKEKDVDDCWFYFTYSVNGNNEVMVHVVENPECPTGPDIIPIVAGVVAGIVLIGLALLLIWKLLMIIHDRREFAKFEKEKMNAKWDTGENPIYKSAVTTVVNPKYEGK
# Test: Inhibition of VLA4-dependent adhesion of Ramos cells to BSA-CS1
# Assay type: cell-based
# Source text: For example, the cell adhesion inhibitory activity of these compounds may be measured by determining the concentration of inhibitor required to block the binding of VLA-4-expressing cells to fibronectin- or CS1-coated plates. In this assay microtiter wells are coated with either fibronectin (containing the CS1-sequence) or CS-1. If CS-1 is used, it must be conjugated to a carrier protein, such as bovine serum albumin, in order to bind to the wells. Once the wells are coated, varying concentrations of the test compound are then added together with appropriately labelled, VLA-4-expressing cells. Alternatively, the test compound may be added first and allowed to incubate with the coated wells prior to the addition of the cells. The cells are allowed to incubate in the wells for at least 30 minutes. Following incubation, the wells are emptied and washed. Inhibition of binding is measured by quantitating the fluorescence or radioactivity bound to the plate for each of the various concentrations of test compound, as well as for controls containing no test compound.
# VLA-4-expressing cells that may be utilized in this assay include Ramos cells, Jurkat cells, A375 melanoma cells, as well as human peripheral blood lymophocytes (PBLs). The cells used in this assay may be fluorescently or radioactively labelled.
# This assay was used to assess the potency of VLA4-directed inhibitory compounds of this invention. 1.
# We dissolved BSA-SMCC (Pierce Chemical, Rockford, Ill.; Catalog #77115) in H2O at a concentration of 10 mg/mL. [SEQ ID NO:4]: […](“Cys-Tyr-CS1 peptide”), which we synthesized by conventional solid phase chemistry and purified by HPLC, was dissolved in 10 mM HEPES pH 5, 50 mM NaCl and 0.1 mM EDTA also at a concentration of 10 mg/mL. We then mixed 500 μL of BSA-SMCC, 250 μL of Cys-Tyr-CS1 peptide and 75 μL of 1 mM HEPES pH 7.5 and allowed the conjugation reaction to proceed for 30 minutes. We stopped the reaction by adding 1 μL of beta-mercaptoethanol. Samples were analyzed for cross-linking by SDS-PAGE.
# We coated the wells of a Linbro titertek polystyrene 96-well flat bottom plate (Flow Laboratories, Maclean, Va.; catalog #76-231-05) with 100 μL of the above-described BSA-CS1 solution diluted to 1 μg/mL in 0.05 M NaHCO3 (15 mM NaHCO3, 35 mM Na2CO3) pH 9.2. Some wells were not coated with CS1 in order to assess non-specific cell binding (NSB). The plate was then incubated overnight at 4° C.
# Following this incubation, the contents of the wells were removed by inverting and blotting the plate. All of the wells were then blocked with 100 μL of 1% BSA in PBS, 0.02% NaN3, for a minimum of one hour at room temperature.
# Ramos cells are grown, maintained and labelled in RPMI 1640 culture medium containing 1% BSA. Just prior to running the assay, we added 2′, 7′-bis-(2-carboxyethyl)-5(and -6)carboxyfluorescein acetoxymethyl ester (“BCECF-AM”; Molecular Probes Inc., Eugene, Oregon; catalog #B-1150) to a final concentration of 2 μM to a culture of Ramos cells (4×10^6 cells/mL). We incubated the cells for 20 minutes at 37° C.
# Following labelling, the cells were washed twice in assay buffer (24 mM TRIS, 137 mM NaCl, 2.7 mM KCl, pH 7.4, containing 0.1 BSA and 2mM glucose) to remove any cations originating from the culture medium. The cells were then resuspended in assay buffer to 4×10^6 cells/mL and 2 mM MnCl2 was added to upregulate VLA4 on the surface of the cells.
# Immediately prior to running the assay, we removed the BSA blocking solution from the 96-well plates and washed the wells with 100 μL of assay buffer. We then added to each well 25 μL of test cell adhesion inhibitory compound at 2×the final concentration and 25 μL of the labelled Ramos cells. […] Each concentration of compound was tested in triplicate. The compound and cells are allowed to incubate for 30 minutes at room temperature.
# [1] = Ramos cells, BSA-CS1 coated wells, 2 mM MnCl2, 30 minutes at room temperature, read-out: IC50
SMILES,IC50 [µM],IC50 [1] [µM]
CC(C)CC(NC(=O)C1CCc2ccccc2N1)C(=O)NC(CC(=O)O)C(=O)NC(C(=O)N(C)c1ccccc1)C(C)C (stereo not shown) [Compound 120],> 10,
CC(C)C[C@H](NC(=O)c1ccc2ccccc2n1)C(=O)N[C@@H](CC(=O)O)C(=O)N[C@H](C(=O)N(C)c1ccccc1)C(C)C [Compound 121],,> 10
CC(C)C[C@H](NC(=O)C1CCc2ccccc2N1)C(=O)N[C@@H](CC(=O)O)C(=O)N[C@H](C(=O)Nc1ccc(F)cc1)C(C)C (stereo partly shown) [Compound 122],,> 10
CC(C)C[C@H](NC(=O)c1ccc2ccccc2n1)C(=O)N[C@@H](CC(=O)O)C(=O)N[C@H](C(=O)Nc1ccc(F)cc1)C(C)C [Compound 123],,> 10
CC(C)C[C@H](NC(=O)C1CCc2ccccc2N1)C(=O)N[C@@H](CC(=O)O)C(=O)N[C@H](C(=O)Nc1ccccc1)C(C)C (stereo partly shown) [Compound 124],,> 10
CC(C)C[C@H](NC(=O)c1ccc2ccccc2n1)C(=O)N[C@@H](CC(=O)O)C(=O)N[C@H](C(=O)Nc1ccccc1)C(C)C [Compound 125],,> 10
CNC(=O)[C@@H](NC(=O)[C@H](CC(=O)O)NC(=O)[C@H](CC(C)C)N(C)C(=O)c1ccccn1)C(C)C [Compound 126],,> 10
CC(C)C[C@H](NC(=O)c1ccc2ccccc2n1)C(=O)N[C@@H](CC(=O)O)C(=O)N[C@H](C(=O)N1CCN(c2ccccc2)CC1)C(C)C [Compound 127],,> 10
CNC(=O)[C@@H](NC(=O)[C@H](CC(=O)O)NC(=O)[C@H](CC(C)C)N(C)C(=O)c1ccc(OC)cc1)C(C)C [Compound 128],,> 10
CNC(=O)[C@@H](NC(=O)[C@H](CC(=O)O)NC(=O)[C@H](Cc1ccc(O)cc1)NC(=O)Cc1ccccc1)C(C)C [Compound 129] (HELM PEPTIDE1{[O=C(Cc1ccccc1)[*:2]].Y.D.V.[CN[*:1]]}$$$$V2.0),,> 10
CNC(=O)[C@@H](NC(=O)[C@H](CC(=O)O)NC(=O)[C@@H]1CCCN1C(=O)Cc1ccccc1)C(C)C [Compound 130] (HELM PEPTIDE1{[O=C(Cc1ccccc1)[*:2]].P.D.V.[CN[*:1]]}$$$$V2.0),,> 10
CNC(=O)[C@@H](NC(=O)[C@H](CC(=O)O)NC(=O)[C@H](CCCNC(=N)N)NC(=O)Cc1ccccc1)C(C)C [Compound 131] (HELM PEPTIDE1{[O=C(Cc1ccccc1)[*:2]].R.D.V.[CN[*:1]]}$$$$V2.0),,> 10
CNC(=O)[C@@H](NC(=O)[C@H](CC(=O)O)NC(=O)[C@H](CC(N)=O)NC(=O)Cc1ccccc1)C(C)C [Compound 132] (HELM PEPTIDE1{[O=C(Cc1ccccc1)[*:2]].N.D.V.[CN[*:1]]}$$$$V2.0),,> 10
CNC(=O)[C@@H](NC(=O)[C@H](CC(=O)O)NC(=O)C1(NC(=O)OC(C)(C)C)CCc2ccccc2C1)C(C)C (stereo partly shown) [Compound 133],,> 10
CNC(=O)[C@@H](NC(=O)[C@H](CC(=O)O)NC(=O)C1(NC(=O)Cc2ccccc2)CCc2ccccc2C1)C(C)C (stereo partly shown) [Compound 134],,> 10
CC(C)(C)OC(=O)N[C@@H](CC(=O)O)C(=O)N1CCC[C@H]1C(=O)NCC(=O)O [Compound 135] (HELM PEPTIDE1{[CC(C)(C)OC(=O)[*:2]].D.P.G}$$$$V2.0),,> 10
O=C(O)CNC(=O)[C@@H]1CCCN1C(=O)[C@H](CC(=O)O)NC(=O)Cc1ccccc1 [Compound 136] (HELM PEPTIDE1{[O=C(Cc1ccccc1)[*:2]].D.P.G}$$$$V2.0),,> 10
CC(C)C[C@H](NC(=O)Cc1ccccc1)C(=O)N[C@@H](CC(=O)O)C(=O)N1CCC[C@H]1C(=O)NC(C(=O)O)C(=O)O [Compound 138],,> 10
COC(=O)[C@@H](NC(=O)[C@H](CC(=O)O)NC(=O)[C@H](CC(C)C)N(C)C(=O)CCc1ccccc1)C(C)C [Compound 140] (HELM PEPTIDE1{[O=C(CCc1ccccc1)[*:2]].[meL].D.V.[CO[*:1]]}$$$$V2.0),,> 10

SMILES,IC50 [µM],IC50 [1] [µM]
COC(=O)[C@@H](NC(=O)[C@H](CC(=O)O)NC(=O)[C@H](CC(C)C)N(C)C(=O)Cc1ccc(O)cc1)C(C)C [Compound 141],,> 10
COC(=O)[C@@H](NC(=O)[C@H](CC(=O)O)NC(=O)[C@H](CC(C)C)N(C)C(=O)c1ccc2ccccc2n1)C(C)C [Compound 142],,> 10
COC(=O)[C@@H](NC(=O)[C@H](CC(=O)O)NC(=O)[C@H](CC(C)C)N(C)C(=O)CCCc1ccccc1)C(C)C [Compound 143],,> 10
CC(C)C[C@H](NC(=O)Cc1ccc(NC(=O)Nc2ccccc2O)cc1)C(=O)N[C@@H](CC(=O)O)C(=O)N[C@H](C(=O)N1CCC[C@H]1C(=O)O)C(C)C [Compound 144] ({X1-CO}-[X2]LDVP-OH),,< 0.05
CC(C)C[C@H](NC(=O)Cc1ccc(NC(=O)Nc2ccccc2)cc1)C(=O)N[C@@H](CC(=O)O)C(=O)N[C@H](C(=O)N1CCC[C@H]1C(=O)O)C(C)C [Compound 145] ({NHPh-CO}-[X2]LDVP-OH),,< 0.05
CSCC[C@H](NC(=O)Cc1ccc(NC(=O)Nc2ccccc2O)cc1)C(=O)N[C@@H](CC(=O)O)C(=O)N[C@H](C(=O)N1CCC[C@H]1C(=O)O)C(C)C [Compound 146] ({X1-CO}-[X2]MDVP-OH),,< 0.05
COc1cc(CC(=O)N[C@@H](CC(C)C)C(=O)N[C@@H](CC(=O)O)C(=O)N[C@H](C(=O)N2CCC[C@H]2C(N)=O)C(C)C)ccc1NC(=O)Nc1ccccc1 [Compound 147] ({NHPh-CO}-[X3]LDVP-NH2),,< 0.05
Cc1ccccc1NC(=O)Nc1ccc(CC(=O)N[C@@H](CC(C)C)C(=O)N[C@@H](CC(=O)O)C(=O)N[C@H](C(=O)N2CCC[C@H]2C(N)=O)C(C)C)cc1 [Compound 148] ({NH(2-Me-phenyl)-CO}-[X2]LDVP-NH2),,< 0.05
CC(C)[C@H](NC(=O)[C@H](CC(=O)O)NC(=O)OC(C)(C)C)C(=O)N1CCC[C@H]1C(=O)O [Compound 149] (HELM PEPTIDE1{[CC(C)(C)OC(=O)[*:2]].D.V.P}$$$$V2.0),,> 10
CC(C)[C@H](NC(=O)[C@H](CC(=O)O)NC(=O)CCCCc1ccccc1)C(=O)N1CCC[C@H]1C(=O)O [Compound 150],,> 10
C=CCC(CCc1ccccc1)C(=O)N[C@H](C(=O)N1CCC[C@H]1C(=O)O)C(C)C (stereo partly shown) [Compound 151],,> 10
CC(=O)N[C@@H](Cc1ccccc1)C(=O)N[C@@H](CC(C)C)C(=O)N[C@@H](CC(=O)O)C(=O)N[C@H](C(=O)O)C(C)C [Compound 152] (Ac-FLDV-OH),,> 10
COC(=O)[C@@H](NC(=O)[C@H](CC(=O)O)NC(=O)[C@H](CC(C)C)NC(=O)C1Cc2ccccc2CN1)C(C)C (stereo partly shown) [Compound 154] (HELM PEPTIDE1{[O=C(C1Cc2ccccc2CN1)[*:2]].L.D.V.[CO[*:1]]}$$$$V2.0),,> 10
CC(C)C[C@H](NC(=O)CCCc1ccccc1)C(=O)N[C@@H](CC(=O)O)C(=O)N[C@H](C(=O)O)C(C)C [Compound 155],,> 10
COC(=O)[C@@H](NC(=O)[C@H](CC(=O)O)NC(=O)[C@H](CC(C)C)NC(=O)c1cc2ccccc2cn1)C(C)C [Compound 156],,0.05 to 10
CC(C)CNC(=O)[C@H](CC(=O)O)NC(=O)[C@H](CC(C)C)NC(=O)c1cc2ccccc2cn1 [Compound 157],,0.05 to 10
CC(C)C[C@H](NC(=O)c1ccc2ccccc2n1)C(=O)N[C@@H](CC(=O)O)C(=O)N[C@H](C(=O)OC(C)(C)C)C(C)C [Compound 158],,> 10
CC(C)C[C@H](NC(=O)c1ccc2ccccc2n1)C(=O)N[C@@H](CC(=O)OCc1ccccc1)C(=O)N[C@H](C(=O)O)C(C)C [Compound 159],,> 10
